Measured values from ChEMBL document CHEMBL3808348, “Rational Design, Synthesis, and Biological Evaluation of 7-Azaindole Derivatives as Potent Focused Multi-Targeted Kinase Inhibitors” (J Med Chem, 2016).
pEC50, pIC50: −log10 of the molar value.

How the values were obtained:
[1] = molecular target: Non-receptor tyrosine-protein kinase TYK2 (Homo sapiens) (UniProt P29597); settings: 100 nM
Description: Inhibition of GST-tagged human recombinant TYK2 (832 to 1187 residues) expressed in baculovirus using Fluorescein-Poly GT as substrate at 100 nM

[2] = molecular target: Ephrin type-A receptor 4 (Homo sapiens) (UniProt P54764); settings: 100 nM
Description: Inhibition of GST-tagged human recombinant EPHA4 (616 to 887 residues) expressed in baculovirus using Fluorescein-Poly GT as substrate at 100 nM

[3] = Antiproliferative activity against human PC3 cells after 72 hrs by MTT assay; format: functional, cell-based; settings: PC-3, 72 h
[4] = molecular target: Tyrosine-protein kinase ABL1 (Homo sapiens, UniProt P00519, E255K); assay: Inhibition of His-tagged full length human recombinant ABL E255K mutant expressed in baculovirus using Fluorescein-Poly GT as substrate
[5] = test system: HUVEC; assay: Antiangiogenic activity in HUVEC after 72 hrs by MTT assay; format: functional, cell-based; settings: Homo sapiens
[6] = test system: NCI-H1975; assay: Antiproliferative activity against human NCI-H1975 cells harboring EGFR L858R/T790M double mutant after 72 hrs by MTT assay; format: functional, cell-based; settings: NCI-H1975, 72 h
[7] = Tmax in Swiss mouse plasma at 2 mg/kg, iv by LC/MS/MS analysis; format: ADME, organism-based
[8] = AUC(0 to infinity) in Swiss mouse plasma at 2 mg/kg, iv by LC/MS/MS analysis; format: ADME, organism-based; set-up: dose 2 mg/kg, route intravenous, time infinity
[9] = molecular target: Protein kinase C gamma type (Homo sapiens) (UniProt P05129); settings: 100 nM
Description: Inhibition of full length human recombinant PKCgamma expressed in baculovirus using Fluorescein-PKC as substrate at 100 nM

[10] = molecular target: Tyrosine-protein kinase ABL1 (Homo sapiens, UniProt P00519, Y253F); assay: Inhibition of His-tagged full length human recombinant ABL Y253F mutant expressed in baculovirus using Fluorescein-Poly GT as substrate
[11] = molecular target: Tyrosine-protein kinase ZAP-70 (Homo sapiens) (UniProt P43403); settings: 100 nM
Description: Inhibition of His-tagged full length human recombinant ZAP70 expressed in baculovirus using Fluorescein-Poly GT as substrate at 100 nM

[12] = molecular target: Serine/threonine-protein kinase Chk2 (Homo sapiens) (UniProt O96017); settings: 100 nM
Description: Inhibition of His-tagged human recombinant CHK2 expressed in baculovirus using Fluorescein-CREBtide as substrate at 100 nM

[13] = molecular target: Proto-oncogene tyrosine-protein kinase Src (Homo sapiens, UniProt P12931); assay: Inhibition of full length His-tagged human recombinant cSRC expressed in baculovirus using Fluorescein-Poly GT as substrate
[14] = molecular target: Inhibitor of nuclear factor kappa-B kinase subunit alpha (Homo sapiens) (UniProt O15111); settings: 100 nM
Description: Inhibition of His-tagged full length human recombinant IKKalpha expressed in baculovirus using Fluorescein-IKK as substrate at 100 nM

[15] = molecular target: Tyrosine-protein kinase receptor UFO (Homo sapiens) (UniProt P30530); settings: 100 nM
Description: Inhibition of full length His-tagged human recombinant AXL expressed in insect expression system using Fluorescein-Poly GT as substrate at 100 nM

[16] = molecular target: Tyrosine-protein kinase Fer (Homo sapiens) (UniProt P16591); settings: 100 nM
Description: Inhibition of His-tagged human recombinant FER (541 to 822 residues) expressed in baculovirus using Fluorescein-Poly GT as substrate at 100 nM

[17] = molecular target: CDK9/cyclin T1 (Homo sapiens) (UniProt O60563+P50750); settings: 100 nM
Description: Inhibition of CDK9/cyclinT1 (unknown origin) at 100 nM

[18] = molecular target: Angiopoietin-1 receptor (Homo sapiens) (UniProt Q02763); settings: 100 nM
Description: Inhibition of GST-tagged human recombinant TIE2 (817 to 1101 residues) expressed in baculovirus using Fluorescein-Poly GT as substrate at 100 nM

[19] = molecular target: Focal adhesion kinase 1 (Homo sapiens) (UniProt Q05397); settings: 100 nM
Description: Inhibition of full length GST-tagged human recombinant FAK expressed in baculovirus using Fluorescein-Poly GT as substrate at 100 nM

[20] = molecular target: Tyrosine-protein kinase ABL1 (Homo sapiens, UniProt P00519); assay: Inhibition of His-tagged full length human recombinant wild type ABL expressed in baculovirus using Fluorescein-Poly GT as substrate at 100 nM
[21] = molecular target: Serine/threonine-protein kinase B-raf (Homo sapiens, UniProt P15056, V600E); assay: Inhibition of full length GST-tagged human recombinant BRAF V600E mutant expressed in baculovirus using Fluorescein-MAP2K1 as substrate
[22] = molecular target: Protein kinase C delta type (Homo sapiens) (UniProt Q05655); settings: 100 nM
Description: Inhibition of full length human recombinant PKCdelta expressed in baculovirus using Fluorescein-PKC as substrate at 100 nM

[23] = molecular target: Tyrosine-protein kinase Fgr (Homo sapiens) (UniProt P09769); assay: Inhibition of His-tagged full length human recombinant FGR expressed in baculovirus using Fluorescein-Poly GT as substrate at 100 nM
[24] = molecular target: Tyrosine-protein kinase CSK (Homo sapiens) (UniProt P41240); settings: 100 nM
Description: Inhibition of His-tagged full length human recombinant CSK expressed in Escherichia coli using Fluorescein-Poly GT as substrate at 100 nM

[25] = molecular target: Myosin light chain kinase, smooth muscle (Homo sapiens) (UniProt Q15746); settings: 100 nM
Description: Inhibition of GST-tagged human recombinant MLCK (1428 to 1771 residues) expressed in baculovirus at 100 nM

[26] = test system: Epidermal growth factor receptor (Homo sapiens), P00533 [T790M]; settings: 100 nM
[27] = molecular target: Serine/threonine-protein kinase mTOR (Homo sapiens) (UniProt P42345); settings: 100 nM
Description: Inhibition of GST-tagged human recombinant mTOR (1360 to 2549 residues) expressed in baculovirus using GFP-4E -BP1 as substrate at 100 nM

[28] = Cmax in Swiss mouse plasma at 2 mg/kg, iv by LC/MS/MS analysis; format: ADME, organism-based; set-up: dose 2 mg/kg, route intravenous
[29] = molecular target: Serine/threonine-protein kinase PAK 2 (Homo sapiens) (UniProt Q13177); settings: 100 nM
Description: Inhibition of GST-tagged full length human recombinant PAK2 expressed in baculovirus at 100 nM

[30] = molecular target: Aurora kinase C (Homo sapiens) (UniProt Q9UQB9); settings: 100 nM
Description: Inhibition of full length His-tagged human recombinant Aurora C expressed in baculovirus using Fluorescein-CREBtide as substrate at 100 nM

[31] = molecular target: Tyrosine-protein kinase FRK (Homo sapiens, UniProt P42685); settings: 100 nM
Description: Inhibition of GST-tagged full length human recombinant FRK expressed in baculovirus using Fluorescein-Poly GT as substrate at 100 nM

[32] = Tmax in Swiss mouse plasma at 20 mg/kg, po by LC/MS/MS analysis; format: ADME, organism-based
[33] = molecular target: MAP kinase-activated protein kinase 5 (Homo sapiens) (UniProt Q8IW41); settings: 100 nM
Description: Inhibition of His-tagged full length human recombinant MAPKAPK5 expressed in baculovirus at 100 nM

[34] = molecular target: MAP kinase-activated protein kinase 2 (Homo sapiens) (UniProt P49137); settings: 100 nM
Description: Inhibition of His-tagged full length human recombinant MAPKAPK2 expressed in Escherichia coli using Fluorescein-CREBtide as substrate at 100 nM

[35] = AUC(0 to infinity) in Swiss mouse plasma at 20 mg/kg, po by LC/MS/MS analysis; format: ADME, organism-based; set-up: dose 20 mg/kg, time infinity, route oral
[36] = molecular target: Serine/threonine-protein kinase D2 (Homo sapiens) (UniProt Q9BZL6); settings: 100 nM
Description: Inhibition of GST-tagged full length human recombinant PKD2 expressed in baculovirus using Fluorescein-CREBtide as substrate at 100 nM

[37] = molecular target: Tyrosine-protein kinase JAK2 (Homo sapiens) (UniProt O60674); settings: 100 nM
Description: Inhibition of GST-tagged human recombinant JAK2 (809 to 1153 +9 residues) expressed in baculovirus using GFP-ST AT1 as substrate at 100 nM

[38] = Antiproliferative activity against human Caki2 cells after 72 hrs by MTT assay; format: functional, cell-based; settings: CAKI-2, 72 h
[39] = molecular target: AMP-activated protein kinase, AMPK (Homo sapiens) (UniProt P54646+O43741+P54619+Q9UGJ0+Q9Y478+Q13131+Q9UGI9); settings: 100 nM
Description: Inhibition of full length human recombinant AMPK expressed in baculovirus expression system using Fluorescein-CREBtide as substrate at 100 nM

[40] = molecular target: Tyrosine-protein kinase ABL1 (Homo sapiens, UniProt P00519, G250E); assay: Inhibition of His-tagged full length human recombinant ABL G250E mutant expressed in baculovirus using Fluorescein-Poly GT as substrate
[41] = molecular target: Proto-oncogene tyrosine-protein kinase receptor Ret (Homo sapiens) (UniProt P07949); settings: 100 nM
Description: Inhibition of GST-tagged human recombinant RET (658 to 1114 residues) expressed in baculovirus using Fluorescein-Poly GT as substrate at 100 nM

[42] = molecular target: Calcium/calmodulin-dependent protein kinase type II subunit delta (Homo sapiens) (UniProt Q13557); settings: 100 nM
Description: Inhibition of full length His-tagged human recombinant CaMK2 delta expressed in baculovirus using Fluorescein-CREBtide as substrate at 100 nM

[43] = molecular target: Protein kinase C theta type (Homo sapiens) (UniProt Q04759); settings: 100 nM
Description: Inhibition of full length His-tagged human recombinant PKCtheta expressed in baculovirus using Fluorescein-PKC as substrate at 100 nM

Proto-oncogene tyrosine-protein kinase Src, sequence (P12931 2-536 limits assumed): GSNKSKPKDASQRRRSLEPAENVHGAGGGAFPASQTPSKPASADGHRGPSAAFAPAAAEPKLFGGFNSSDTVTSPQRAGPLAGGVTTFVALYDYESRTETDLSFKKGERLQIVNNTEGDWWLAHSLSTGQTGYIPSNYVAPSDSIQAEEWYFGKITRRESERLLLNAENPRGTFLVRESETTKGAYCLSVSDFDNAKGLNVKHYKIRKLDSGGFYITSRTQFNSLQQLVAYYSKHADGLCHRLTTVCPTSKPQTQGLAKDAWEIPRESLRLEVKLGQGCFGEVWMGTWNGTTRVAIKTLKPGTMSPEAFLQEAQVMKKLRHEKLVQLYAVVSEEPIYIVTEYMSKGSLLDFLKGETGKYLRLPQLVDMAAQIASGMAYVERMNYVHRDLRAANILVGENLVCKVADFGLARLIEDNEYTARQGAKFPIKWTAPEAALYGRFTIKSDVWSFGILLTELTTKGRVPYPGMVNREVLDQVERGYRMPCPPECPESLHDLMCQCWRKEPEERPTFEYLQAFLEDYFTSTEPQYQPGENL
Protein kinase C delta type (Homo sapiens), sequence (Q05655 whole entry, looked up): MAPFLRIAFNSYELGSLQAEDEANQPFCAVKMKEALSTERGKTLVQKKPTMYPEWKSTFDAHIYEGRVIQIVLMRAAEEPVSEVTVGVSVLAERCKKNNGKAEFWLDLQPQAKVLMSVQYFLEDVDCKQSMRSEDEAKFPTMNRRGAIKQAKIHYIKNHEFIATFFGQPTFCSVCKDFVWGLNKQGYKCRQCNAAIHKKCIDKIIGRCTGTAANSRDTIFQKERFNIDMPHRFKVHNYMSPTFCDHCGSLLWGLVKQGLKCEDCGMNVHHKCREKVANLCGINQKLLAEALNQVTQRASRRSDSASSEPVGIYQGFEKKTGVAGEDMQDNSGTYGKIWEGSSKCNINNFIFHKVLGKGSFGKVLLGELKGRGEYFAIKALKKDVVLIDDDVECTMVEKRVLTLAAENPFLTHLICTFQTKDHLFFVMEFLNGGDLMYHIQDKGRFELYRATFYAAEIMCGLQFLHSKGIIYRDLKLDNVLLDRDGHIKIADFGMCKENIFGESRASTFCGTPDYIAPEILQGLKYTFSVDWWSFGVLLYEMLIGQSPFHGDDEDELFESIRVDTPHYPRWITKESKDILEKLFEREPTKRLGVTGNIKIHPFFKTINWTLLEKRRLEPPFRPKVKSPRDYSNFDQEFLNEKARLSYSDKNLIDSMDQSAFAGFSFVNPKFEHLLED
Aurora kinase C (Homo sapiens), sequence (Q9UQB9 whole entry): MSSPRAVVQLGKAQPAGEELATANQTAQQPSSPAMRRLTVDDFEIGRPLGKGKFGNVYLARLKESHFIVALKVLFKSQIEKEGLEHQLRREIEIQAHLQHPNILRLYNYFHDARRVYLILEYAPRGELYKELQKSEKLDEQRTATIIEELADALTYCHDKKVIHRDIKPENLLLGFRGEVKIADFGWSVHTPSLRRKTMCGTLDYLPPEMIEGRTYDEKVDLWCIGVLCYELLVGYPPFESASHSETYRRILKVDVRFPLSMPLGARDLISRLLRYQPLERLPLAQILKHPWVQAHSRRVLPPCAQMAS
MAP kinase-activated protein kinase 5 (Homo sapiens), sequence (Q8IW41 whole entry): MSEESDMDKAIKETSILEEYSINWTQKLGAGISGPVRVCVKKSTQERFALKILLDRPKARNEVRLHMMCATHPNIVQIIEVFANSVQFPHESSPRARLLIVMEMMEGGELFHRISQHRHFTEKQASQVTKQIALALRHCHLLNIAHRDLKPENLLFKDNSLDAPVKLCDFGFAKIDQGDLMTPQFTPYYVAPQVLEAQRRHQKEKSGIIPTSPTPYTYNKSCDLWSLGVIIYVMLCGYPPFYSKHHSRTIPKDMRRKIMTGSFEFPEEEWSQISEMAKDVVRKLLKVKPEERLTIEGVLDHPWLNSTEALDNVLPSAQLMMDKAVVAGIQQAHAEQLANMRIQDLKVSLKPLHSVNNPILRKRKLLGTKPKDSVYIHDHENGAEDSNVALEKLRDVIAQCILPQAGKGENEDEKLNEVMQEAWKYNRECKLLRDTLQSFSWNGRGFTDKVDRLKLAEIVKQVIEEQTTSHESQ
MAP kinase-activated protein kinase 2 (Homo sapiens), sequence (P49137 whole entry, looked up): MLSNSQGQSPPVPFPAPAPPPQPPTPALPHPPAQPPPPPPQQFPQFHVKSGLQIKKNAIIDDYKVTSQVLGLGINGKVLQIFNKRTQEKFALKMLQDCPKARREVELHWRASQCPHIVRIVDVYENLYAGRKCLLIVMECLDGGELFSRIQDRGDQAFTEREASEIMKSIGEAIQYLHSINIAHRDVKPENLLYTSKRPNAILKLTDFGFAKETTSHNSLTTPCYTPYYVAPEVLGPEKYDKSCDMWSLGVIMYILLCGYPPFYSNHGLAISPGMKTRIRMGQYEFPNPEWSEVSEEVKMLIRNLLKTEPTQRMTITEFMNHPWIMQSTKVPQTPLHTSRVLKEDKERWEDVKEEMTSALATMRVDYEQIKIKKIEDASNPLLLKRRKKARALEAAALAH
Serine/threonine-protein kinase D2 (Homo sapiens), sequence (Q9BZL6 whole entry): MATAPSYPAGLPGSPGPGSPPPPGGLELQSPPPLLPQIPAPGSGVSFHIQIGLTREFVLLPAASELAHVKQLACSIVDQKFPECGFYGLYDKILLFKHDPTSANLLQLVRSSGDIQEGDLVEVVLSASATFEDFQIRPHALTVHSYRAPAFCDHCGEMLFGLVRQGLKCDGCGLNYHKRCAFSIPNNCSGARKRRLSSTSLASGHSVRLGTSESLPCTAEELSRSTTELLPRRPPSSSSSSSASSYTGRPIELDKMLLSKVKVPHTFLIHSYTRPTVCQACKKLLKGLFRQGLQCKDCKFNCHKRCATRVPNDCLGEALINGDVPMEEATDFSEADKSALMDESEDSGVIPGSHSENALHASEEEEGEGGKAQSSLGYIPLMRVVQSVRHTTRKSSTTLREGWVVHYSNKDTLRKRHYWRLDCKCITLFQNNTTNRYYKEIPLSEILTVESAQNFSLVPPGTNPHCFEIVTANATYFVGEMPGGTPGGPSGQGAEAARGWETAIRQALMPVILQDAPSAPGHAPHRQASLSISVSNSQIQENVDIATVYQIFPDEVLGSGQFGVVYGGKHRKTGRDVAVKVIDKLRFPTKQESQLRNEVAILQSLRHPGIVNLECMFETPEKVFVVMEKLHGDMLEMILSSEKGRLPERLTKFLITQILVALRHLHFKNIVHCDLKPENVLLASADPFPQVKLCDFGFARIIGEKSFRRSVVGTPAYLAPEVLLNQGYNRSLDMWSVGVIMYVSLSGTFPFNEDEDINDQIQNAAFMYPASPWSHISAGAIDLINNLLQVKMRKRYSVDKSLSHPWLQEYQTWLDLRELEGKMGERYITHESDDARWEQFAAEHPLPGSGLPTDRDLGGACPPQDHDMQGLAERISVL
Serine/threonine-protein kinase B-raf, sequence (P15056 2-766 V600E limits assumed): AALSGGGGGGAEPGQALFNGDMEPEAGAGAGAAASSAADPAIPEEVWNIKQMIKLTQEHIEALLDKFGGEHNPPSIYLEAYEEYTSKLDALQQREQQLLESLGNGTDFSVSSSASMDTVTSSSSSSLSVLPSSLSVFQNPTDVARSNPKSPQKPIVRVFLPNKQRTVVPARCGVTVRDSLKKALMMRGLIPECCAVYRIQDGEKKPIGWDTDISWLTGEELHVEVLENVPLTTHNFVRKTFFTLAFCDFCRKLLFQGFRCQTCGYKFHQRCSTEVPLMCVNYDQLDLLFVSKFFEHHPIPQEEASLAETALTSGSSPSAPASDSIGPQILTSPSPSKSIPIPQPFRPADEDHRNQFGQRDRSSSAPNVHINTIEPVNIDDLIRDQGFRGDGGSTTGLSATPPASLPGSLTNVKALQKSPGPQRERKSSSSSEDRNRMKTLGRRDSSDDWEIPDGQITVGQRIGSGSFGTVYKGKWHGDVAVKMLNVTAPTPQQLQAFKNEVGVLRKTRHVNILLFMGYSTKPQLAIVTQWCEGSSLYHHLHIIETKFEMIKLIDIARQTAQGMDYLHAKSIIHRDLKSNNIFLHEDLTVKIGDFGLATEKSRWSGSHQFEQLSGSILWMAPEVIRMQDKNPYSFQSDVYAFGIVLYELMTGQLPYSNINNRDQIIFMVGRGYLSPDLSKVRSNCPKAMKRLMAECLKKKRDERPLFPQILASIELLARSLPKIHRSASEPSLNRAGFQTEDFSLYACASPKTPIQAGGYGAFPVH
Tyrosine-protein kinase Fer (Homo sapiens), sequence (P16591 whole entry, looked up): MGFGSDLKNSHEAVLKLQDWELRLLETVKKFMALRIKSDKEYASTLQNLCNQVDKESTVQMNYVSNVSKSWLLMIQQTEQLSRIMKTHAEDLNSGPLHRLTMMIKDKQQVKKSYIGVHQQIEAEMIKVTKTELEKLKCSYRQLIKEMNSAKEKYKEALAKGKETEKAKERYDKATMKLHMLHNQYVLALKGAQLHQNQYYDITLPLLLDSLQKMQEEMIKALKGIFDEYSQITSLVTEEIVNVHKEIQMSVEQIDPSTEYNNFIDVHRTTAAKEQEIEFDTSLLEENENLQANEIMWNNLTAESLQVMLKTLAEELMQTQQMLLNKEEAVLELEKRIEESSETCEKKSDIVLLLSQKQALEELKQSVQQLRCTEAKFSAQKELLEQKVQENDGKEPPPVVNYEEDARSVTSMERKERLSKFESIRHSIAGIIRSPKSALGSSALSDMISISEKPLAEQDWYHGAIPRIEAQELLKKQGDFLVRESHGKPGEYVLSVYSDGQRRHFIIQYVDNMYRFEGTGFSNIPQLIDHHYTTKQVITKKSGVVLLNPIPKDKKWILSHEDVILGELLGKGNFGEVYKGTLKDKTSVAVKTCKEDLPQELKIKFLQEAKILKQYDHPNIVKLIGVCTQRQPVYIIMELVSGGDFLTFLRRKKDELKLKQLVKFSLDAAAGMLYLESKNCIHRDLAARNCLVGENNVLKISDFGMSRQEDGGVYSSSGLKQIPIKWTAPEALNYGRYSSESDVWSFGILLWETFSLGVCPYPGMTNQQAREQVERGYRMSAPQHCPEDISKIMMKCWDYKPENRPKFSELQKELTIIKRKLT

COC(=O)c1cc2cc(NCc3cc(NC(=O)c4cc(-n5cnc(C)c5)cc(C(F)(F)F)c4)ccc3C)cnc2[nH]1
inhibition [1]: < 40% | inhibition [2]: < 40% | pEC50 [3]: 6.82 | pIC50 [4]: 7.14 | pEC50 [5]: 7.47 | pEC50 [6]: 6.98 | Tmax [7]: 10 min | AUC(0-inf) [8]: 0.558 µg·h/mL | inhibition [9]: < 40% | pIC50 [10]: 7.29 | inhibition [11]: < 40% | inhibition [12]: < 40% | pIC50 [13]: 7.40 | inhibition [14]: < 40% | inhibition [15]: < 40% | inhibition [16]: < 40% | inhibition [17]: < 40% | inhibition [18]: < 40% | inhibition [19]: < 40% | inhibition [20]: > 80% | pIC50 [21]: 8.00 | inhibition [22]: < 40% | inhibition [23]: > 80% | inhibition [24]: < 40% | inhibition [25]: < 40% | inhibition [26]: < 40% | inhibition [27]: < 40% | Cmax [28]: 0.853 µg/mL | inhibition [29]: < 40% | inhibition [30]: < 40% | inhibition [31]: < 40% | Tmax [32]: 30 min | inhibition [33]: < 40% | inhibition [34]: < 40% | AUC(0-inf) [35]: 3.03 µg·h/mL | inhibition [36]: < 40% | inhibition [37]: < 40% | pEC50 [38]: 7.66 | inhibition [39]: < 40% | pIC50 [40]: 7.34 | inhibition [41]: < 40% | inhibition [42]: < 40% | inhibition [43]: < 40%
